From ChEMBL document CHEMBL1124423, “Synthesis of highly mu and delta opioid receptor selective peptides containing a photoaffinity group” (J Med Chem, 1989) come the findings set out here.

Assay [1] has as its target Opioid receptors; mu & delta (Homo sapiens) (UniProt P41143+P35372). As to the kind of experiment: Selectivity ratio for binding to mu vs delta opioid receptor. It counts as protein assay.
The species named for assay [2] is Cavia porcellus. Briefly: Inhibition of response by delta receptor selective analogue at 300 nM was assessed in Guinea pig ileum assay. The assay is classed as functional.
Assay [3] is filed under the species Mus musculus. As to the kind of experiment: Concentration that reduced the response by 50% by delta selective analogue was assessed in mouse vas deferens assay. It counts as functional.
For assay [4], the species on record is Cavia porcellus. Briefly: Concentration that reduced the response by 50% by delta receptor selective analogue was assessed in Guinea pig ileum assay. The assay is classed as functional.
The species entered for assay [5] is Cavia porcellus. As to the kind of experiment: Inhibition of response by delta receptor selective analogue at 3000 nM was assessed in Guinea pig ileum assay. It counts as functional.
For assay [6], the species on record is Mus musculus. As to the kind of experiment: Concentration that reduced the response by 50% by delta selective analogue was assessed in mouse vas deferens assay; NA is no activity at 10e-5 M. It counts as functional.
Assay [7] deals with Delta-type opioid receptor (Rattus norvegicus, UniProt P33533). Briefly: Binding potency of compound in competition with [3H]DPDPE for Opioid receptor delta 1 tested in rat brain membrane. It counts as cell membranes.
Delta-type opioid receptor, sequence (P33533 whole entry): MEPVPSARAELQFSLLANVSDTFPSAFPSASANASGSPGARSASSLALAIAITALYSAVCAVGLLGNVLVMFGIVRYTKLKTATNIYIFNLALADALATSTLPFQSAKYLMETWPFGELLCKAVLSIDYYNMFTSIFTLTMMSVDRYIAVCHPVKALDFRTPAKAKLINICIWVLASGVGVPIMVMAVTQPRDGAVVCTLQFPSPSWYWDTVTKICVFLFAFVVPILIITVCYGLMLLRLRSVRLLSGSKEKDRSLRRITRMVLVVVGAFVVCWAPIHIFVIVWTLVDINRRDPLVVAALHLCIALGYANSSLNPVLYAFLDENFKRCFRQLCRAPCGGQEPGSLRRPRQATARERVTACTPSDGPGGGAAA
A further assay addresses Mu-type opioid receptor (Rattus norvegicus, UniProt P33535). Briefly: Binding potency of compound in competition with [3H]CTOP for Opioid receptor mu 1 tested in rat brain membrane. The assay is classed as cell membranes.
Assay [8] is filed under the species Cavia porcellus. Briefly: Inhibition of response by delta receptor selective analogue at 10000 nM was assessed in Guinea pig ileum assay. The assay is classed as functional.
The species named for assay [9] is Cavia porcellus. As to the kind of experiment: Affinity of mu receptor selective analogue in Guinea pig ileum assay expressed as pA2. The assay is classed as functional. The conditions noted are these: read-out: pA2 (converted).
The species entered for assay [10] is Mus musculus. Briefly: Concentration that reduced the response by 50% by delta receptor selective analogue was assessed in mouse vas deferens assay; NA is no activity at 10e-5 M. The assay is classed as functional.

Mu-type opioid receptor, sequence (P33535 whole entry): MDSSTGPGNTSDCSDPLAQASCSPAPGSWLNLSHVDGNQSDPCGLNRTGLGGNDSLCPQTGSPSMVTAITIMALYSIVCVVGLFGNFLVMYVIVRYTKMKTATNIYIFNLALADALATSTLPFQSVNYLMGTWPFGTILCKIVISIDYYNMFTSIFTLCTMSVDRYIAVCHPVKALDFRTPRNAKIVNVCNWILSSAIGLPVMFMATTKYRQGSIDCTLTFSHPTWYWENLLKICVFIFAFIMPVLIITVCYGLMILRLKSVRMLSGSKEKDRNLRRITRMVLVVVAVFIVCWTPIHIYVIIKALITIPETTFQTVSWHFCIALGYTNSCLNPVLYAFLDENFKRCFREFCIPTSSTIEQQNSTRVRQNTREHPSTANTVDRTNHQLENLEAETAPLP
Opioid receptors; mu & delta (Homo sapiens), sequence (P35372 whole entry, looked up): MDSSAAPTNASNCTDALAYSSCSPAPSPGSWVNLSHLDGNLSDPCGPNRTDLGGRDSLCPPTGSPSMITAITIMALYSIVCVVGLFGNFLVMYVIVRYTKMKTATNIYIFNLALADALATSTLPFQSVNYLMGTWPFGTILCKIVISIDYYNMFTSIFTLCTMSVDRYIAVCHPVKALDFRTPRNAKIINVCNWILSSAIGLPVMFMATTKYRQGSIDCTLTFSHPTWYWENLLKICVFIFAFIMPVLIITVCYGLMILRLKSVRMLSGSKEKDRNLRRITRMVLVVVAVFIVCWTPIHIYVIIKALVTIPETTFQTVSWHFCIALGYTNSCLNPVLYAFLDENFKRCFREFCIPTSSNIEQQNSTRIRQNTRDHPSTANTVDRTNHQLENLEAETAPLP
Opioid receptors; mu & delta (Homo sapiens), sequence (P41143 whole entry, looked up): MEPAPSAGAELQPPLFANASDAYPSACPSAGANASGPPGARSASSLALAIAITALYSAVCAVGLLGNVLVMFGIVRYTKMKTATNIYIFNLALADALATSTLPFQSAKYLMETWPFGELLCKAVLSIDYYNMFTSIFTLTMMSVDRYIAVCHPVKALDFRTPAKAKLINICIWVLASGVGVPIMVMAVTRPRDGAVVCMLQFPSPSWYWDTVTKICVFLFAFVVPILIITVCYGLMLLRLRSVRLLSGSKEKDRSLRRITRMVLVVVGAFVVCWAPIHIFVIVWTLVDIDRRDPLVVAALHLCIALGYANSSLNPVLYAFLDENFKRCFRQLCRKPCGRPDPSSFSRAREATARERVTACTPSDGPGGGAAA

For the compound `C[C@@H](O)[C@H](NC(=O)[C@@H]1NC(=O)[C@H]([C@@H](C)O)NC(=O)[C@@H](CCCCN)NC(=O)[C@@H](Cc2c[nH]c3ccccc23)NC(=O)[C@@H](Cc2ccc(O)cc2)NC(=O)[C@H](NC(=O)[C@@H](N)Cc2ccccc2)CSSC1(C)C)C(=O)O`, the Ratio in [1] stood at 3230.

Turning to `C[C@@H](O)[C@H](NC(=O)[C@H]1NC(=O)[C@H]([C@@H](C)O)NC(=O)[C@H](CCCCN)NC(=O)[C@@H](Cc2c[nH]c3ccccc23)NC(=O)[C@H](Cc2ccc(N=[N+]=[N-])cc2)NC(=O)[C@@H](NC(=O)[C@H](N)Cc2ccccc2)CSSC1(C)C)C(N)=O` [listing 1 of 2 here], testing at 0.3 µM in the assay listed under Cavia porcellus [2] gave an inhibition of 8%.

With `CC1(C)SSC(C)(C)[C@@H](NC(=O)[C@@H](N)Cc2ccc(O)cc2)C(=O)NCC(=O)N[C@@H](Cc2ccc(N)cc2)C(=O)N[C@H]1C(=O)O`, the concentration for half-maximal inhibition (IC50) in the assay listed under Mus musculus [3] is 0.138 µM; in the assay listed under Cavia porcellus [4], greater than 10 µM.

`CC1(C)SSC(C)(C)[C@@H](NC(=O)[C@@H](N)Cc2ccc(O)cc2)C(=O)NCC(=O)N[C@@H](Cc2ccc(N=[N+]=[N-])cc2)C(=O)N[C@H]1C(=O)O` [listing 1 of 2 here] yielded an IC50 in the assay listed under Mus musculus [3] of 0.0095 µM.

As for `CC1(C)SSC(C)(C)[C@@H](NC(=O)[C@@H](N)Cc2ccc(O)cc2)C(=O)NCC(=O)N[C@@H](Cc2ccccc2)C(=O)N[C@H]1C(=O)O`, in the assay listed under Mus musculus [3], half-maximal inhibition (IC50) required 0.0043 µM.

In the case of `C[C@@H](O)[C@H](NC(=O)[C@H]1NC(=O)[C@H]([C@@H](C)O)NC(=O)[C@H](CCCCN)NC(=O)[C@@H](Cc2c[nH]c3ccccc23)NC(=O)[C@H](Cc2ccc(N)cc2)NC(=O)[C@@H](NC(=O)[C@H](N)Cc2ccccc2)CSSC1(C)C)C(N)=O` [listing 1 of 2 here], in the assay filed under Cavia porcellus [5], the inhibition at 3 µM turned out to be 5%.

With `C[C@@H](O)[C@H](NC(=O)[C@@H]1NC(=O)[C@H]([C@@H](C)O)NC(=O)[C@@H](CCCCN)NC(=O)[C@@H](Cc2c[nH]c3ccccc23)NC(=O)[C@@H](Cc2ccc(N=[N+]=[N-])cc2)NC(=O)[C@H](NC(=O)[C@@H](N)Cc2ccccc2)CSSC1(C)C)C(N)=O`, the Ratio in assay [1] was found to be 412.

For `C[C@@H](O)[C@H](NC(=O)[C@H]1NC(=O)[C@H]([C@@H](C)O)NC(=O)[C@H](CCCCN)NC(=O)[C@@H](Cc2c[nH]c3ccccc23)NC(=O)[C@H](Cc2ccc(N)cc2)NC(=O)[C@@H](NC(=O)[C@H](N)Cc2ccccc2)CSSC1(C)C)C(N)=O` [listing 2 of 2 here], the IC50 result in the assay filed under Mus musculus [6] is “Not Active”; in assay [7], greater than 10 µM; on Mu-type opioid receptor, 0.5 µM.

In the case of `CC1(C)SSC(C)(C)[C@@H](NC(=O)[C@@H](N)Cc2ccc(O)cc2)C(=O)NCC(=O)N[C@@H](Cc2ccc(N=[N+]=[N-])cc2)C(=O)N[C@H]1C(=O)O` [listing 2 of 2 here], the inhibition at 10 µM in the assay filed under Cavia porcellus [8] was 6%.

Regarding `C[C@@H](O)[C@H](NC(=O)[C@H]1NC(=O)[C@H]([C@@H](C)O)NC(=O)[C@H](CCCCN)NC(=O)[C@@H](Cc2c[nH]c3ccccc23)NC(=O)[C@H](Cc2ccc(N=[N+]=[N-])cc2)NC(=O)[C@@H](NC(=O)[C@H](N)Cc2ccccc2)CSSC1(C)C)C(N)=O` [listing 2 of 2 here], the IC50 entry is “Not Active” in the assay filed under Mus musculus [6], 20 µM in [7] and 0.049 µM on Mu-type opioid receptor.

Turning to `C[C@@H](O)[C@H](NC(=O)[C@H]1NC(=O)[C@H]([C@@H](C)O)NC(=O)[C@H](CCCCN)NC(=O)[C@@H](Cc2c[nH]c3ccccc23)NC(=O)[C@H](Cc2ccc(O)cc2)NC(=O)[C@@H](NC(=O)[C@H](N)Cc2ccccc2)CSSC1(C)C)C(=O)O`, the Kb in the assay filed under Cavia porcellus [9] was 0.0794 µM. Further, the IC50 entry in the assay filed under Mus musculus [10] is “Not Active”; in assay [7], 8.4 µM; on Mu-type opioid receptor it was 0.003 µM.

As for `C[C@@H](O)[C@H](NC(=O)[C@@H]1NC(=O)[C@H]([C@@H](C)O)NC(=O)[C@@H](CCCCN)NC(=O)[C@@H](Cc2c[nH]c3ccccc23)NC(=O)[C@@H](Cc2ccc(N)cc2)NC(=O)[C@H](NC(=O)[C@@H](N)Cc2ccccc2)CSSC1(C)C)C(N)=O`, the Ratio in assay [1] was greater than 20.

One may read the inhibition as the change of the read-out against control, counted positive when it falls. Read a high inhibition as a strong effect. One may read the IC50 as the concentration needed to halve the response being measured.
